# Like-named read-outs stand apart in the source and are kept apart here.
# Key:
# [1] = tested on: MCF-7 breast cancer cells; experiment: cytotoxicity assay on MCF-7 breast cancer cells; assay type: cell-based, human
# Experimental: The cytotoxic activity of trans-desoxylaulimalide (12a) was evaluated. An initial cytotoxicity study with desoxylaulimalide (12a) was conducted to compare compound (12a) to taxol and laulimalide for effects on the growth of human MCF-7 breast cancer cells. Cytotoxicity assays on MCF-7 were performed as described in P. Giannakakou et al., J. Biol. Chem., 272, 17118–17125 (1997). Consistent with its activity in a tubulin assembly assay, desoxylaulimalide (12a) was an inhibitor of cell growth. […] Thus, desoxylaulimalide (12a) is about 1/50 as active as laulimalide in the MCF-7 cells. This compares with the 340-fold lower activity in MDA-MB-435 breast cancer cells observed for isolaulimalide (9), which also lacks the epoxide moiety.
# tubulin = tubulin assembly assay / microtubule stabilization; assay type: biochemical
# [2] = tested on: MDA-MB-435 and SK-OV-3 cell lines; settings: drug-sensitive cell lines MDA-MB-435 and SK-OV-3; read-out: IC50, inhibition of cell proliferation; cited from earlier work
# [3] = tested on: P388, A549, HT29, and MEL28 cell lines; settings: range over four cell lines; cited from earlier work
# KB cell line = settings: cited from earlier work
# [4] = tested on: P-glycoprotein-mediated MDR cell lines; settings: cited from earlier work
# [5] = tested on: SKVLB-1 multidrug resistant cell line; settings: multidrug resistant cell line SKVLB-1; read-out: IC50 against SKVLB-1; cited from earlier work
# [6] = tested on: MDA-MB-435 breast cancer cells; settings: cited from earlier work
# [7] = Homo sapiens, MCF7, read-out: IC50, inhibition of cell growth
structure (smiles),measurement,setting,value
"C=C1C[C@H](C)C[C@@H]2CC=C[C@@H](C/C=C\C(=O)O[C@H]([C@@H](O)/C=C/[C@@H]3CC(C)=CCO3)C/C=C/[C@@H](O)C1)O2 [12a, desoxylaulimalide]",IC50,[1]; [7],360 nM
same,activity relative to laulimalide,[1]; MCF-7 cells,about 1/50
same,effect on the tubulin assembly reaction,tubulin,stimulates the tubulin assembly reaction
same,potency with respect to microtubule stabilization,tubulin; compared with laulimalide (2),potency similar to laulimalide (2)
C=C1C[C@H](C)C[C@@H]2CC=C[C@@H](C/C=C\C(=O)O[C@H]([C@@H](O)/C=C/[C@@H]3CC(C)=CCO3)C[C@@H]3O[C@H]3[C@@H](O)C1)O2 [laulimalide],IC50,[2],5 to 12 nM
same,IC50,[1]; [7],7 nM
same,"IC50, cytotoxicity against P388, A549, HT29, and MEL28 cell lines",[3],0.01 to 0.05 µg/mL
same,"IC50, cytotoxicity against KB cell line",KB cell line,0.015 µg/mL
same,fold more potent than taxol,[4],100 fold
same,IC50,[5],1200 nM
CC(=O)O[C@H]1C(=O)[C@@]2(C)[C@H]([C@H](OC(=O)c3ccccc3)[C@]3(O)C[C@H](OC(=O)[C@H](O)[C@@H](NC(=O)c4ccccc4)c4ccccc4)C(C)=C1C3(C)C)[C@]1(OC(C)=O)CO[C@@H]1C[C@@H]2O [taxol],IC50,[2],1000 to 2000 nM
same,IC50,"[1]; MCF7, human MCF-7 breast cancer cells, read-out: IC50, inhibition of cell growth",2.4 nM
C=C1CC(C)C[C@@H]2CC=C[C@@H](C/C=C\C(=O)O[C@@H]3C[C@H](O[C@@H]3/C=C/[C@H]3CC(C)=CCO3)[C@H](O)C(O)C1)O2 (stereo partly drawn) [isolaulimalide],fold lower activity (compared with laulimalide),[6],340 fold
same,IC50,KB cell line; read-out: IC50 against KB cell line,> 200 nM
same,IC50,[5],2600 nM

# — patent publication US7109235B2, “Microtubule stabilizing compounds” (The Board of Trustees of the University Illinois, priority 2002, dated 2006)
